# Reference: US20070128303A1, “Anti-inflammatory, cytoprotective factor derivable from a probiotic organism” (THE UNIVERSITY OF CHICAGO, priority 2004, published 2007)
# Starred links: 1 amine or outer side, 2 acyl side, 3 side chain; linkers in the order of their positions; H or OH if unused. Positions of bridges follow the written chain, without caps; N, C: chain ends. Non-standard residues stand in square brackets, D forms with d. Residues, ends and D or L forms follow the SMILES beside them. *: point of attachment. Trp(2-yl) = O=C([C@H](Cc1c([*:3])[nH]c2ccccc12)N[*:1])[*:2]; Leu(4R-OH,5-OH) = C[C@](O)(CO)C[C@H](N)C(=O)O; cisHyp = O=C(O)[C@@H]1C[C@H](O)CN1; Cbz = O=C(OCc1ccccc1)*
# What was measured:
# [1] = molecular target: T1, trypsin-like activity of the proteasome (Mus musculus, UniProt P70195); assay: Proteasome assay on YAMC cell lysates, substrate Bz-val-gly-arg-AMC; format: cell-based; settings: VSL#3-CM 16 hours; lactacystin 10 μM
# T1 construct: endogenous in cells; host or cells: YAMC cell lysates
# T1 sequence (P70195 44-277): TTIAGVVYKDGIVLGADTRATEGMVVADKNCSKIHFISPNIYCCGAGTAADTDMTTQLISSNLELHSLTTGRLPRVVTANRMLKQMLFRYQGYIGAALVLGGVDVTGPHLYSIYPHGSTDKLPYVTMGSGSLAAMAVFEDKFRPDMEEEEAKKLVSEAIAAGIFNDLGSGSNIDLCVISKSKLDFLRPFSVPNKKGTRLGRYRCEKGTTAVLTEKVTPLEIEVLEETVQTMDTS
# [2] = molecular target: T2, PGPH, or caspase-like, activity of the proteasome (Mus musculus, UniProt Q60692); assay: Proteasome assay on YAMC cell lysates, substrate Z-leu-leu-glu-AMC; format: cell-based; settings: VSL#3-CM 16 hours, about equivalent to 10 μM lactacystin; lactacystin 10 μM
# T2 construct: endogenous in cells; host or cells: YAMC cell lysates
# T2 sequence (Q60692 1-238): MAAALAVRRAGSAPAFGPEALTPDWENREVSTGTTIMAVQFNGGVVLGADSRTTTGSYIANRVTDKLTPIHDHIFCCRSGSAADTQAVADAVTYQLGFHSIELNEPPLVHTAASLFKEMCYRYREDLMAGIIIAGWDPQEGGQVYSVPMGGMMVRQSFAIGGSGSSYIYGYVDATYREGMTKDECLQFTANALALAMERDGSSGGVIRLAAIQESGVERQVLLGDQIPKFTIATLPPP
# Hsp25 and Hsp72 = assay: Immunoblot of Hsp25 and Hsp72 expression in YAMC cells; format: cell-based, mouse
# Description: Twenty micrograms of protein per lane were resolved on 12.5% SDS-PAGE and transferred in 1× Towbin buffer (composition 25 mM Tris, 192 mM glycine, pH 8.8, 15% vol/vol methanol) onto PVDF membranes (Polyscreen, Perkin-Elmer NEN, Boston, Mass.) as previously described (Kojima, 2003), incorporated herein by reference. Membranes were blocked in 5% (wt/vol) non-fat milk in TBS-Tween (Tris-buffered saline (150 mM NaCl, 5 mM KCl, 10 mM Tris, pH 7.4) with 0.05% (vol/vol) Tween 20) for one hour at room temperature. For anti-ubiquitin blots, membranes were blocked in 3% bovine serum albumin (Fisher, Pittsburgh, Pa.). Primary antibody was added to TBS-Tween and incubated overnight at 4° C. with a specific anti-Hsp 25 antibody (SPA 801, Stressgen, Victoria, BC, Canada), anti-Hsp 72 antibody (SPA 810, Stressgen), anti-Hsc 73 antibody (SPA 815, Stressgen), anti-IκB-α antibody (sc-1643, Santa Cruz Biotechnology, Santa Cruz, Calif.), anti-phospho IκB-α antibody (sc-8404, Santa Cruz), or anti-ubiquitin antibody (PW 8810, Affiniti Research Products Ltd, Exeter, U.K.). Blots were then washed in TBS-Tween five times for 10 minutes each at room temperature before incubation with peroxidase-conjugated secondary antibodies (Jackson Immunoresearch Labs, Inc. Fort Washington, Pa.) for 1 hour at room temperature. […]
# NF-κB = NF-κB ELISA assay (Active Motif), TNF-α stimulation; format: cell-based; settings: TNF-α 30 ng/ml
# Description: The proteasome inhibitors in VSL#3 may be small organic molecules. Some proteasome inhibitors found in nature are small molecular weight organic esters or organic acid derivatives, such as those in green tea. An ether extraction of the VSL#3-CM was undertaken to determine if bioactive factors could be concentrated to produce a more consistent and robust response. […] TNF-α stimulation (30 ng/ml) alone caused a significant increase in NF-κB activation (second bar from left).
# [3] = molecular target: T3, 20S proteasomal component (barrel) (Homo sapiens, UniProt P28074); assay: In vitro 20S proteasome assay (Calbiochem); format: biochemical; settings: 20S component, slopes compared
# T3 construct: purchased Calbiochem
# Description: Proteasome activity from cell lysates was determined using a 20S Proteasome assay kit (Calbiochem, San Diego, Calif.). Briefly, ice-cold cell lysate containing 20 μg protein was added to proteasome assay reaction buffer (25 mm HEPES, 0.5 mM EDTA, pH 7.6) activated with 0.03% (wt/vol) SDS. The sample was allowed to come to room temperature, then placed in a quartz cuvette and 10 μM of the substrate suc-leu-leu-val-tyr-AMC (SLLVY-AMC), Bz-val-gly-arg-AMC, or Z-leu-leu-glu-AMC was added. The SLLVY-AMC substrate is cleaved by the chymotrypsin-like activity of the proteasome, the Bz-val-gly-arg-AMC substrate is cleaved by the trypsin-like activity of the proteasome, and the Z-leu-leu-glu-AMC substrate is cleaved by the PGPH, or caspase-like, activity of the proteasome. Proteasome activity was determined by measuring the fluorogenic signal generated by cleavage of AMC (7-amino-4-methylcoumarin) from the peptide moiety of the proteasome substrate. Fluorescence (excitation at 380 nm, emission at 460 nm) was measured every minute for the first 10 minutes, then every 15 minutes thereafter in a Hitachi F-2000 fluorometer (Hitachi, Japan). Cells were treated with either MG132 (25 μM) or lactacystin (10 μM) as a positive inhibitor control. Untreated cells were treated with DMSO as a vehicle control for MG132 and lactacystin. Experiments were performed in triplicate. […]
# F/G actin = F/G actin assay, YAMC cells under oxidant stress; format: cell-based, mouse; settings: phalloidin 30 μg/ml 2 hours; cytochalasin D 10 μg/ml 15 min
# Description: F/G actin assays were conducted by initially shifting confluent YAMC cell monolayers to 37° C. in IFN-γ-free medium and treating with VSL#3-CM overnight. Prior to assessment, cells were treated with phalloidin (30 μg/ml for 2 hours; Molecular probes, Eugene, Oreg.), cytochalasin D (10 μg/ml for 15 min), or the oxidant monochloramine (0.6 mM for 30 minutes). Cells were rinsed in PBS, harvested, centrifuged (14,000×g for 20 seconds at room temperature) and the pellets resuspended in 200 μl of 30° C. lysis buffer (1 mM ATP, 50 mM PIPES, pH 6.9, 50 mM NaCl, 5 mM MgCl2, 5 mM EGTA, 5% (vol/vol) glycerol, 0.1% (vol/vol) Nonidet P-40, Tween 20, and Triton X-100, containing complete protease inhibitor cocktail). Cells were homogenized by gently pipetting up and down ten times and incubated at 30° C. for 10 minutes. Samples were centrifuged at 100,000×g for 60 minutes at 30° C. and the supernatants were removed for determination of G actin content. Pellets containing F-actin were resuspended in 200 μl of 4° C. distilled water with 1 μM cytochalasin D and left on ice for 60 minutes. Then, 20 μl of each extraction was removed, 6 μl 3× Laemmli stop solution was added and the samples were heated to 65° C. for 10 minutes. Samples were resolved by 12.5% SDS-PAGE and immediately transferred to PVDF membranes. […]
smiles,measurement,setting,value
CC(=O)N[C@@H](CSC(=O)[C@]1([C@@H](O)C(C)C)NC(=O)[C@H](C)[C@@H]1O)C(=O)O [Lactacystin],effect on trypsin-like activity of the proteasome,[1],inhibits
same,effect on caspase-like activity of the proteasome,[2],only a weak inhibitor
same,cell toxicity limiting usable concentration,YAMC cells; concentrations higher than 10 μM,limited due to cell toxicity
CC(C)C[C@@H](C=O)NC(=O)[C@H](CC(C)C)NC(=O)[C@H](CC(C)C)NC(=O)OCc1ccccc1 [MG132] (Cbz-Leu-Leu-Leu-aldehyde),appearance of Hsp signal,Hsp25 and Hsp72; MG132 25 μM time course,7 to 14 h
same,induction of Hsp25 and Hsp72,"Hsp25 and Hsp72; MG132 25 μM, more robust than thermal stress",very strong induction
same,effect on TNF-α-stimulated NF-κB activity,NF-κB,significantly inhibited
same,effect on in vitro proteasomal activity,[3],significant inhibition
same,change in morphology and loss of cell viability,"YAMC cells; 16 hours, MG132 at 25 μM, phase-contrast photographs",dramatic change in morphology and loss of cell viability
same,cell viability compared to untreated control cells,"YAMC cells; VSL#3-CM 24 hours of treatment, MG132 prolonged exposure",markedly increased cell death
C=C1[C@@H](C)[C@H]2[C@H](Cc3ccccc3)NC(=O)[C@]23[C@H](OC(C)=O)/C=C/[C@@](C)(O)C(=O)[C@@H](C)C/C=C/[C@H]3[C@@H]1O [cytochalasin D],"effect on F- and G-actin, control agents",F/G actin,greatly increases the amount of globular (G) actin
"C[C@@H]1NC(=O)[C@H](C[C@@](C)(O)CO)NC(=O)[C@@H]2Cc3c([nH]c4ccccc34)SC[C@H](NC(=O)[C@@H]([C@H](C)O)NC1=O)C(=O)N1C[C@@H](O)C[C@H]1C(=O)N[C@@H](C)C(=O)N2 [phalloidin] (cyclo(A[dT]C[cisHyp]A[Trp(2-yl)][Leu(4R-OH,5-OH)]); thioether 3-6)","effect on F- and G-actin, control agents",F/G actin,increasing the amount of F-actin
